Measurements: patent US10106684B2, “Method for making Schiff base” (KING FAHD UNIVERSITY OF PETROLEUM AND MINERALS, priority 2016, dated 2018)

Experiment: Fluorescence titration of compound 1 with Cu^2+ (Stern-Volmer plot, detection limit)
Format: binding
Procedure: All of the absorption and emission studies were carried out in mixed aqueous solutions of water and methanol (4:1) containing HEPES buffer (10 mM, pH 7.4) at a concentration of 20 μM and 0.2 μM respectively. Emission studies were carried out by addition of 10 equiv of various biologically and non-biologically relevant metal cations to an aqueous-MeOH (4:1) solution of compound 1 at a concentration level of 0.2 μM and their complexation abilities were studies by fluorescence. […] Importantly, none of the other cations induced any such distinct emission shift or quenching (FIG. 7). […] Fluorescence titration of compound 1 with Cu^2+ was carried out in aqueous MeOH (4:1) solution at a concentration level of 0.2 μM. The addition of Cu^2+ to the solution of compound 1 caused a complete quenching of the fluorescent emission and the peak at 525 nm (Φ=0.32) is “switched off” when excited at 502 nm (FIG. 9). […]
Thus, it can be assumed that the quenching of the fluorescence of compound 1 by Cu^2+ ion is a static quenching mode due to the formation of a non-fluorescent complex in the ground state. […] From the Stern-Volmer linear plot (FIG. 14) the binding constant of compound 1 with Cu^2+ was calculated to be 1.0×10^7 L·mol^−1 (error limits≤10%).

## Cn1ccnc1/C=N/N1C(=O)c2ccccc2C12c1ccc(O)cc1Oc1cc(O)ccc12 [compound 1, Fluorescein-N-methylimidazole conjugate]
0.2 μM compound, excitation 502 nm
  effect of Cu^2+ on fluorescence emission at 525 nm: completely quenched
H2O:MeOH (4:1), HEPES 10 mM, pH 7.4, λex=502 nm, error limits≤10%
  binding constant with Cu^2+ from Stern-Volmer linear plot: 1e+07 L/mol
